In US8426367B2, “Peptides specific for human blood outgrowth endothelial cells” (The University of North Carolina at Chapel Hill, priority 2007, dated 2013):

Assays:
[1] = tested on: human blood outgrowth endothelial cells (HBOEC); assay: Homogeneous phage recovery (relative binding) on HBOEC; conditions: for concentration dependence of homogeneous recovery (binding to HBOEC): 1.10^9, 1.10^10, 1.10^11 pfu, 1 h at 4° C.; for concentration dependence of homogeneous recovery (binding to HBOEC) / relative recovery / affinity-avidity among the four selected phage clones: FIG. 1B; for relative recovery / affinity-avidity among the four selected phage clones: four clones with different consensus motifs
Description: Cells at 80% confluence were detached by treating with 0.05% trypsin-EDTA, washed once with EGM-2 medium and resuspended in EGM-2 containing 1% BSA at 1.10^5 cells per ml. In the pre-clearing step, 1 ml of HUVEC suspension at 1.10^5 cells per ml were incubated with 10 μl of PhD-12 peptide phage display system (New England Biolabs, Beverly, Mass.) within 1.5 ml Eppendorf tube for 2 hours at 4° C.; the mixture was then centrifuged. In the screening step, the unbound phage pool remaining in the supernatant was transferred to a fresh tube and incubated with 1 ml of HBOEC at 1.10^5 cells per ml. After 1 hour incubation at 4° C., the cell-phage complexes were separated by centrifugation. Following five intensive washes with TBS-0.5% Tween-20 buffer the bound phage was non-specifically eluted with 0.2 M Glycine-HCl buffer (pH 2.2) for 10 min. The eluate was immediately neutralized by 1M Tris.HCl buffer (pH 9.0). An aliquot of the eluted phage was used for determining titer by plaque assay. The rest of the phage eluate was amplified in mid-log phase E. coli ER2738 (New England Biolabs), and purified by precipitation with polyethylene glycol. An aliquot of the amplified phage was subsequently re-applied to newly trypsinized cells for a total of three biopanning rounds and two amplification steps.
Once isolated individual phage clones were subjected to evaluation of relative binding. High titer stocks of homogeneous phage were generated. Serially diluted phage (1.10^9 pfu, 1.10^10 pfu, and 1.10^11 pfu) were incubated with HBOEC (1.10^5 cells) for 1 h at 4° C. and then subjected to the same wash protocol used for the selection experiments. In parallel the same procedure was carried in a blocked Eppendorf tube without HBOEC to test for non specific binding for each selected sequence to the plastic container. Binding ratio is defined as recovery of phage bound to the target cells normalized to the recovery of phage non-specifically bound to the plastic.

[2] = tested on: panel of other cell types; assay: Binding specificity: biopanning of HBOEC-selected phage clones on a panel of other cell types; parameters: species or system human; conditions: 1.10^11 phage, 1 hour at 4° C., FIG. 3
Description: Lymphocytes and neutrophils were obtained from the same preparation. Lymphocytes were collected from the supernatant of the cultured buffy coat mononuclear cells that were allowed to adhere for 48 hours. The cell concentration was adjusted to 1.10^5 cells per ml.
Neutrophils were collected from the lower portion of the density gradient preparation. The upper layers were removed and processed as described above. The neutrophil-rich Histopaque layer was transferred to a centrifuge tube and diluted in fresh RPMI to wash the cells free of Histopaque. The suspension was centrifuged at 700×g for 15 min at room temperature. The supernatant was aspirated and the pellet resuspended in 10 ml of RPMI and centrifuged at 700×g for 10 min at room temperature. Contaminating red cells were lysed by quickly re-suspending the pellet in sterile water at 4° C. After 30 sec an equal volume of 1.8% saline solution was added in order to return the solution to isotonicity. The suspension was then centrifuged for 10 min at 250×g at 4° C. The cell lysis step was repeated. The final pellet was re-suspended and concentration adjusted to 1.10^5 cells per ml.
(§1) HUVEC were from the American Type Culture Collection (ATCC, Manassas, Va.). Passages 4 to 8 were used in this study. HUVEC were cultured in EGM-MV medium (Cambrex) at 37° C. in an incubator with humid atmosphere and 5% CO2.
Peripheral blood human HL-60 promyelocytic cells from the American Type Culture Collection (ATCC) were cultured in RPMI 1640 medium supplemented with 20% fetal bovine serum.
The specificity of HBOEC-selected phage clones was determined by biopanning on a panel of other cell types. The biopanning procedure was carried as described above with the exception of including the pre-clearing incubation step.

[3] = tested on: HUVEC; assay: Cell binding assay: HUVEC attachment to peptide-modified substrates; assay type: cell-based, human; conditions: compared to RGE negative controls; FIG. 8D
Description: as §1
Peptide sequences were immobilized to methacrylic terpolymers via one step chain transfer controlled free radical polymerization as described by Fussell and Cooper (Fussell 2004a and Fussell 2004b). The monomers used in the reactions were n-hexyl methacrylate (HMA) (Alfa Aesar, Ward Hill, Mass.), methyl methacrylate (MMA) (ACROS Organics, Pittsburgh, Pa.), and methacrylic acid (MAA) (ACROS Organics, Pittsburgh, Pa.), with 2,2-azobisisobutyronitrile (AIBN) (Aldrich Chemical, Milwaukee, Wis.) as the initiator. The molar ratio of the monomers in the reaction mixture was HMA:MMA:MAA—20:78:2. The peptides were added with the monomers after the solvent was purged with argon. The reaction temperature for the polymerization was 55-60° C. and reactions were carried out overnight.
Peptide grafted materials were coated on round microscope cover glass slides. Glass slides were sterilized by immersion in 70% ethanol. […] Digital images were taken from 15 random fields per sample and quantified by computer assisted analysis.

Substance	concentration dependence of homogeneous recovery (binding to HBOEC) [1]	relative recovery / affinity-avidity among the four selected phage clones [1]	recovery on cell types other than the target cells [2]	binding ratio (recovery of phage bound to target cells normalized to phage non-specifically bound to plastic) ([1]; 1.10^11 pfu homogeneous phage, 1.10^5 HBOEC, 1 hour at 4° C., FIG. 2)	relative recovery among phage bearing the TP(S/T/G) motif ([1]; 1.10^11 pfu, FIG. 2)	HUVEC attachment [3]
MPTLTRAPHTAC (Human outgrowth endothelial cell-binding peptides isolated from phage library) [SEQ ID NO:37]	bind HBOEC over a range of concentrations in a dose-dependent manner	lowest affinity/avidity	No significant recovery	–	–	–
SPPPSNAGSHHV (Human outgrowth endothelial cell-binding peptides isolated from phage library) [SEQ ID NO:32]	bind HBOEC over a range of concentrations in a dose-dependent manner	–	No significant recovery	–	–	–
SVPPRYTLTLQW (Human outgrowth endothelial cell-binding peptides isolated from phage library) [SEQ ID NO:7]	bind HBOEC over a range of concentrations in a dose-dependent manner	–	No significant recovery	–	–	–
TPSLEQRTVYAK (Human outgrowth endothelial cell-binding peptides isolated from phage library) [SEQ ID NO:17]	bind HBOEC over a range of concentrations in a dose-dependent manner	highest recovery	No significant recovery	43±20	highest recovery	–
fibronectin	–	–	–	–	–	statistically significant
